Assay results taken from patent publication US20090214637A1, “Novel Gene Therapy Approach For Treating The Metabolic Disorder Obesity” (NEUROLOGIX, INC., priority 2007, published 2009).

How the values were obtained:
[1] = 2-DG induced food intake versus saline; assay type: in vivo, mice; details: over 4 h, compared to saline
Text: FIG. 8A-B depicts the effect of Hip2 silencing on the response to 2-deoxy-D-glucose (2-DG) induced hypoglycemia.
Silencing of Hip2 was achieved by AAV vectors encoding the Hip2 small hairpin RNA (Hip2 shRNA) delivered into the VMN region of the brain via injection. AAV vectors encoding the luciferase shRNA were used as controls. […] Furthermore, reduction of Hip2 levels also had no effect on the ability of the VMN neurons to sense glucose levels in blood.

dissociated VMN neurons = assay: Depolarization of dissociated VMN neurons by 17β-estradiol; assay type: cell-based, mice; details: 1 nM or 10 nM
primary VMN neurons = assay: Number of glucose sensing neurons after estradiol, calcium imaging; assay type: cell-based; details: 1 nM, 24 h, primary VMN neurons from female rats
Description: Overexpression of ERα in a murine hypothalamic cell line […] (FIG. 9A-C) has led to upregulation of glucose sensing genes. In order to determine whether these effects are also dependent on estrogen, primary VMN neurons from female rats were treated 17-β-estradiol at physiological levels (1 nM) and the number of glucose sensing neurons were measured in 24 h using calcium imaging.

O=CC[C@@H](O)[C@H](O)[C@H](O)CO [2-DG, 2-deoxy-D-glucose]
food intake [1]: significantly increased food intake

C[C@]12CC[C@@H]3c4ccc(O)cc4CC[C@H]3[C@@H]1CC[C@@H]2O [17β-estradiol]
depolarization of cells with nuclear ERα staining (dissociated VMN neurons): did not depolarize
depolarization of membrane ERα-immunoreactive cells (dissociated VMN neurons; dissociated VMN neurons from postnatal female mice): majority of membrane ERα-immunoreactive cells depolarized
number of glucose-excited neurons (primary VMN neurons): increased the number of glucose-excited neurons
